According to patent EP4129324A1, “COMPOSITIONS COMPRISING AT LEAST AN AMYLIN RECEPTOR AGONIST AND A GLP-1 RECEPTOR AGONIST” (Adocia, priority 2021, dated 2023):
“Also recorded” adds a separate entry of the source.

Test system: gastro-intestinal transit (gastric emptying) in the mouse
Assay: Gastric emptying (stomach content weight) after charcoal suspension in fasted mice, subcutaneous administration
Format: in vivo
Details: male Swiss mice, subcutaneous injection of a composition comprising pramlintide alone, versus vehicle
Method: The aim of this study was to evaluate the effects of pramlintide (compositions C7-1 and C7-2) and co-administration of pramlintide (compositions C7-1 and C7-2) and exenatide (C7-3 and C7-4) on gastro-intestinal transit (gastric emptying) in the mouse.
Co-administration means that the composition of pramlintide and the composition of exenatide were administered separately.
Studies were conducted on naive male Swiss mice (Janvier Lab) as no gender specific effect were expected. Body weight range of 25-32 g were included in the analysis.
Mice were approximately fasted for 18 hours (~T0-18 h). The gastric emptying (i.e. stomach content) was measured via the administration of a suspension of charcoal at T0 (activated charcoal (0.4 ml/mouse, […]; Sigma Reference number C9157), suspended 10% with 2.5% arabic gum in distilled water). […] Afterwards, the stomach was opened, the contents washed out and the weight recorded again (empty stomach weight).
The results are expressed as the variation of gastric content with the administration compositions comprising pramlintide compared with the gastric content with administration the vehicle (weight of gastric content with pramlintide / weight of gastric content with vehicle). […]

## Lys-Cys-Asn-Thr-Ala-Thr-Cys-Ala-Thr-Gln-Arg-Leu-Ala-Asn-Phe-Leu-Val-His-Ser-Ser-Asn-Asn-Phe-Gly-Pro-lle-Leu-Pro-Pro-Thr-Asn-Val-Gly-Ser- Asn-Thr-Tyr [pramlintide]
  stomach (gastric) content weight, i.e. gastric emptying, result in words: increases the stomach content weight; also recorded: increases the gastric content weight
